Test results published in ChEMBL document CHEMBL5653631, “A Potent and Selective ULK1 Inhibitor Suppresses Autophagy and Sensitizes Cancer Cells to Nutrient Stress” (iScience, 2018).
Blank lines part the entries; values can stand above or below the compound they belong to.

How the values were obtained:
[1] = biological target: Serine/threonine-protein kinase 4 (Homo sapiens) (UniProt Q13043); assay: Inhibition of human recombinant MST1 at 500 nM in presence of ATP by radiometric assay relative to control
[2] = biological target: T1, Myosin-IIIb (Homo sapiens) (UniProt Q8WXR4); assay: Inhibition of human recombinant MYO3B at 500 nM related to control ULK1
T1 sequence (whole entry): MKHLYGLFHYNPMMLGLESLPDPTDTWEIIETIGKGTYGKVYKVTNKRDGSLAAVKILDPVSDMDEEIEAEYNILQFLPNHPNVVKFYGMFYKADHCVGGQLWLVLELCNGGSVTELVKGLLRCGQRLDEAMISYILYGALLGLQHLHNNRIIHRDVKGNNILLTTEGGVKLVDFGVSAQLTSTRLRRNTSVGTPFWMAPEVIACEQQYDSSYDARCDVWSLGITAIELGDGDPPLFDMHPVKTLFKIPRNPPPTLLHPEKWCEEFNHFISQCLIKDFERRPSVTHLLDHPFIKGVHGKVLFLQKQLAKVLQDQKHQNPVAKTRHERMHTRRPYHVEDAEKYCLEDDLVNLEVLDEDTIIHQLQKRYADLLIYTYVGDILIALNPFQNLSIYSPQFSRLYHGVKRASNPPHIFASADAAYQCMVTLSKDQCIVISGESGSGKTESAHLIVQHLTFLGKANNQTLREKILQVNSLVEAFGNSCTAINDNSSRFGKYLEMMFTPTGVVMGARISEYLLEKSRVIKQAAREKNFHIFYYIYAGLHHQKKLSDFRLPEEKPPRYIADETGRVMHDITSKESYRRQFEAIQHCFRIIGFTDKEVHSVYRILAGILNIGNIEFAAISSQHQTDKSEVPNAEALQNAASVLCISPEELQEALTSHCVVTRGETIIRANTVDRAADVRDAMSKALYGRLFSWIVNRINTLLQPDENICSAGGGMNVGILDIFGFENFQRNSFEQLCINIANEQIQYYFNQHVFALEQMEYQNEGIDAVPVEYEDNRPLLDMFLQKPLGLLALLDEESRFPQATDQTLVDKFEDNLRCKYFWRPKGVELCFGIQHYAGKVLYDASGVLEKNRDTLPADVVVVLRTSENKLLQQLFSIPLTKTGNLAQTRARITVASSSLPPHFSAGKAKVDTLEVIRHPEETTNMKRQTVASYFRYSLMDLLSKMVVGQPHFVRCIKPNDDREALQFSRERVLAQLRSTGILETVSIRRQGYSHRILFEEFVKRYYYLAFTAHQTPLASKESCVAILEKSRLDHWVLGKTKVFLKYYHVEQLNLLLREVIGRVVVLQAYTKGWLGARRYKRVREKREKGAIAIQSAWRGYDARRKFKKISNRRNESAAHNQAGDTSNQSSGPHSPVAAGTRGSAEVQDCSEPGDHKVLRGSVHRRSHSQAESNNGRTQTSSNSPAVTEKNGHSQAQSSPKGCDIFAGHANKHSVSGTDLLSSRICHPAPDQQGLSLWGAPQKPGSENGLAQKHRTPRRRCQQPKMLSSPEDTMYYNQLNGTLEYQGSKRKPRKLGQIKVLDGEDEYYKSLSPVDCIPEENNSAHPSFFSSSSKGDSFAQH

[3] = biological target: Hepatocyte growth factor receptor (Homo sapiens) (UniProt P08581); assay: Inhibition of human recombinant MET at 500 nM related to control ULK1
[4] = biological target: Fibroblast growth factor receptor 2 (Homo sapiens) (UniProt P21802); assay: Inhibition of human recombinant FGFR2 at 40 nM in presence of ATP by radiometric assay relative to control
[5] = biological target: T2, cAMP-dependent protein kinase catalytic subunit PRKX (Homo sapiens) (UniProt P51817); assay: Inhibition of human recombinant PRKX at 40 nM in presence of ATP by radiometric assay relative to control
T2 sequence (whole entry): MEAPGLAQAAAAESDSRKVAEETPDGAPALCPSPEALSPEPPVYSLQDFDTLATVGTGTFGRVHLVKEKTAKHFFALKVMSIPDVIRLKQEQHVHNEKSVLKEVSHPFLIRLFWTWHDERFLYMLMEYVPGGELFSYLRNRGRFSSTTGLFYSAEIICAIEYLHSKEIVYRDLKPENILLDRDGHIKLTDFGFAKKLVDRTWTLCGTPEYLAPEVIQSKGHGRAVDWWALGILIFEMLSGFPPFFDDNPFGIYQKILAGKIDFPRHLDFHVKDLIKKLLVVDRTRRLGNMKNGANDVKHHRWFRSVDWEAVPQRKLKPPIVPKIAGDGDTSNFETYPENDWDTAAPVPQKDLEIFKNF

[6] = biological target: Death-associated protein kinase 3 (Homo sapiens) (UniProt O43293); assay: Inhibition of human recombinant DAPK3 at 40 nM in presence of ATP by radiometric assay relative to control
[7] = biological target: Ephrin type-A receptor 4 (Homo sapiens) (UniProt P54764); assay: Inhibition of human recombinant EphA4 at 15 nM related to control ULK1
[8] = biological target: T3, Mitogen-activated protein kinase 12 (Homo sapiens) (UniProt P53778); assay: Inhibition of human recombinant p38gamma at 15 nM in presence of ATP by radiometric assay relative to control
T3 sequence (whole entry): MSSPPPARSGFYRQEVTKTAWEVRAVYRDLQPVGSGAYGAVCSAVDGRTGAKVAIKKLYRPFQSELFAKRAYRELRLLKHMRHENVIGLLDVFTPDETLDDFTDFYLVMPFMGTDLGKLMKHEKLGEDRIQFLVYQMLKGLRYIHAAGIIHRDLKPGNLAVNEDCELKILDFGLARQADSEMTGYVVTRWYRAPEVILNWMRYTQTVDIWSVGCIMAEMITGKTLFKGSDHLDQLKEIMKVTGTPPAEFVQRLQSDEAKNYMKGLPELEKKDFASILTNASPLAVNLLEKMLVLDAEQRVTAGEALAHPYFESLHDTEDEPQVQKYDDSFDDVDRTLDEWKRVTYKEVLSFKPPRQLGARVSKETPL

[9] = biological target: T4, MAPK/MAK/MRK overlapping kinase (Homo sapiens) (UniProt Q9UQ07); assay: Inhibition of human recombinant MOK at 15 nM related to control ULK1
T4 sequence (whole entry): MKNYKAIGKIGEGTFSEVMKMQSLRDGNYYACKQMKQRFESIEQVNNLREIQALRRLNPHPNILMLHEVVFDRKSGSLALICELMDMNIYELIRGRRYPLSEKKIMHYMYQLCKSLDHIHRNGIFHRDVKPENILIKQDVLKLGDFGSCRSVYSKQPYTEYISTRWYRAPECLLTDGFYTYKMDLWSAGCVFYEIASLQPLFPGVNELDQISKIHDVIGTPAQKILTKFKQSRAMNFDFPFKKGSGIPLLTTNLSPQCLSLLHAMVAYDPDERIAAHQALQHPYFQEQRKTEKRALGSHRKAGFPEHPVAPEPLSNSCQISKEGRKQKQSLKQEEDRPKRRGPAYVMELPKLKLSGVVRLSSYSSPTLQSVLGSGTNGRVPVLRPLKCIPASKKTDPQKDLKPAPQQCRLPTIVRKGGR

Chain of Death-associated protein kinase 3 (Homo sapiens) (O43293 whole entry, looked up): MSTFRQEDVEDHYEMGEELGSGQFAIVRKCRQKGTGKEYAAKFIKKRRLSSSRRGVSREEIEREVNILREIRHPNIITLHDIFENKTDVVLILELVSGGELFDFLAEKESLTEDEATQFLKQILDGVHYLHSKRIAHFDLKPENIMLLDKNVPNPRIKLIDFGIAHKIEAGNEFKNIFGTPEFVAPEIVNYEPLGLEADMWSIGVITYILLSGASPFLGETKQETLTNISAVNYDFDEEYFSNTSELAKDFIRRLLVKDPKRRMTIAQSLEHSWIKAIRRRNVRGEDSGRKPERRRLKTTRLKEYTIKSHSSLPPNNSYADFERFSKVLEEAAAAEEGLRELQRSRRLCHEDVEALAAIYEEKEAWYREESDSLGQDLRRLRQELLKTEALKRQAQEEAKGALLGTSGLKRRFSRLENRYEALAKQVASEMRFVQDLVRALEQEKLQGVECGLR
Chain of Hepatocyte growth factor receptor (Homo sapiens) (P08581 whole entry, looked up): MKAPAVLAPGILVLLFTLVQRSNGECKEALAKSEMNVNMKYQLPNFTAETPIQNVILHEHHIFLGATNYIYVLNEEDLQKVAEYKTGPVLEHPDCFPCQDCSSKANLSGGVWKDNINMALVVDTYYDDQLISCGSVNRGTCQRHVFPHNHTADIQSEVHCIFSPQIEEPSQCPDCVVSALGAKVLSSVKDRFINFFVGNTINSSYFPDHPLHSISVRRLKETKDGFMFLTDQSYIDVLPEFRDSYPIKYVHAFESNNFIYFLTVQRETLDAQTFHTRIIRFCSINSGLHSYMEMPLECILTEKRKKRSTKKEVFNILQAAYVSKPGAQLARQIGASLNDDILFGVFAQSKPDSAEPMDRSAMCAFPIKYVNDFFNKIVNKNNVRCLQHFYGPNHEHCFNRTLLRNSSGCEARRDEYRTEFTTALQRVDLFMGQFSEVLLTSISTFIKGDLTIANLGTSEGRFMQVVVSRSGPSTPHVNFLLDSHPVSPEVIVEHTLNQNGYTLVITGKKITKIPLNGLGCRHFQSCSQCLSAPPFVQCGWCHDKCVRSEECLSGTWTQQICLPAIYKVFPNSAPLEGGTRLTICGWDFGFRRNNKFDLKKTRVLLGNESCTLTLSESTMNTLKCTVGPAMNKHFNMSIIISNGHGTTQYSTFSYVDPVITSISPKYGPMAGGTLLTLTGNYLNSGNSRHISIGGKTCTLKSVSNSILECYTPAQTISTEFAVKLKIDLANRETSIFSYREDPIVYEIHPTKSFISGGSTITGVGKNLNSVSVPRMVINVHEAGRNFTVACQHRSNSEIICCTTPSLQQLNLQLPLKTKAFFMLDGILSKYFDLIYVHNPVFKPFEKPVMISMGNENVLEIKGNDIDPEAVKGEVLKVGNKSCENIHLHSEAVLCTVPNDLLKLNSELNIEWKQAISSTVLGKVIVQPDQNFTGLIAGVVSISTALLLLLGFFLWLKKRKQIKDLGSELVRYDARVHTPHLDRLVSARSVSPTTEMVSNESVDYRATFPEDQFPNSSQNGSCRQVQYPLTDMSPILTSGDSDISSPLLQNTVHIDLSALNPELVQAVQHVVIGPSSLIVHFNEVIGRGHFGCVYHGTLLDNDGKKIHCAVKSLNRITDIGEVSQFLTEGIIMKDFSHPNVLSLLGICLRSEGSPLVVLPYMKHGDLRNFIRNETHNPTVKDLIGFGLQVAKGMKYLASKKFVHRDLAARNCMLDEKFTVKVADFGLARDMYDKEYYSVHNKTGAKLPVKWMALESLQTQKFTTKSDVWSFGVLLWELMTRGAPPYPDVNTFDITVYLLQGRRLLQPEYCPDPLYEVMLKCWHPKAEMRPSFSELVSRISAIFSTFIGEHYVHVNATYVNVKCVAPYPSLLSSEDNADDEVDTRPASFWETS
Chain of Serine/threonine-protein kinase 4 (Homo sapiens) (Q13043 whole entry, looked up): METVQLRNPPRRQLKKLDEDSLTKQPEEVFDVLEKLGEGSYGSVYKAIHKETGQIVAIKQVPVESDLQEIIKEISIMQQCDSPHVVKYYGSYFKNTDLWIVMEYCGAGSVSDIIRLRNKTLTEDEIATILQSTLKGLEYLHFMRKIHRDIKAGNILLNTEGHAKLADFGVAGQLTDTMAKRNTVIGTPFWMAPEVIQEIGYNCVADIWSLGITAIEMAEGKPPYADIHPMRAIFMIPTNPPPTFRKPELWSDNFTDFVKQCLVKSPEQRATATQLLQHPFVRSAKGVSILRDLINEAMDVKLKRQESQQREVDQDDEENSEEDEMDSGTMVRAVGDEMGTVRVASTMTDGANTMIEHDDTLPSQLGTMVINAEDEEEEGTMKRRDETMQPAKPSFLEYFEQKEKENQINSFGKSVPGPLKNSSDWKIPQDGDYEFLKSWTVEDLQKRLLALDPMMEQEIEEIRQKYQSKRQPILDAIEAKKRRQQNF
Chain of Fibroblast growth factor receptor 2 (Homo sapiens) (P21802 22-821 limits assumed): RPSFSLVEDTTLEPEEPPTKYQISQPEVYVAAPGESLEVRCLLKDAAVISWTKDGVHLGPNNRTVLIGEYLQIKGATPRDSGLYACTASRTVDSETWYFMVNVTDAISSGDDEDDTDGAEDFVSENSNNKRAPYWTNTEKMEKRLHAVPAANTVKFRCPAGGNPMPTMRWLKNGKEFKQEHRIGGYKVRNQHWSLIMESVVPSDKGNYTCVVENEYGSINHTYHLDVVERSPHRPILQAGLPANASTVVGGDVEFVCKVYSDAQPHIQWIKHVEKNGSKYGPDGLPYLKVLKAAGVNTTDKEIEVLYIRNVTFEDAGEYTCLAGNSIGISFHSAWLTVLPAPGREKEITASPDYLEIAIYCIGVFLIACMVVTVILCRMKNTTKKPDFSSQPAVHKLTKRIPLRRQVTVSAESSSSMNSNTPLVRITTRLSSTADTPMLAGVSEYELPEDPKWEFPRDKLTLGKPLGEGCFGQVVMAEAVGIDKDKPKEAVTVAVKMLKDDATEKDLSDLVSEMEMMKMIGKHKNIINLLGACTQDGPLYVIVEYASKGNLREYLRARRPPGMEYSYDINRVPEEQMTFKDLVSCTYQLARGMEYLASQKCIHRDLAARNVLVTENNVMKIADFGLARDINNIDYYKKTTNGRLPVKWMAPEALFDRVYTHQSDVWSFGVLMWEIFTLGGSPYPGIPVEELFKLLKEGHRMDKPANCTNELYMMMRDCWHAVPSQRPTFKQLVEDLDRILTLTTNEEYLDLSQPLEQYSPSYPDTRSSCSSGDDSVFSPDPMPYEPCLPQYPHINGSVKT
Chain of Ephrin type-A receptor 4 (Homo sapiens) (P54764 whole entry): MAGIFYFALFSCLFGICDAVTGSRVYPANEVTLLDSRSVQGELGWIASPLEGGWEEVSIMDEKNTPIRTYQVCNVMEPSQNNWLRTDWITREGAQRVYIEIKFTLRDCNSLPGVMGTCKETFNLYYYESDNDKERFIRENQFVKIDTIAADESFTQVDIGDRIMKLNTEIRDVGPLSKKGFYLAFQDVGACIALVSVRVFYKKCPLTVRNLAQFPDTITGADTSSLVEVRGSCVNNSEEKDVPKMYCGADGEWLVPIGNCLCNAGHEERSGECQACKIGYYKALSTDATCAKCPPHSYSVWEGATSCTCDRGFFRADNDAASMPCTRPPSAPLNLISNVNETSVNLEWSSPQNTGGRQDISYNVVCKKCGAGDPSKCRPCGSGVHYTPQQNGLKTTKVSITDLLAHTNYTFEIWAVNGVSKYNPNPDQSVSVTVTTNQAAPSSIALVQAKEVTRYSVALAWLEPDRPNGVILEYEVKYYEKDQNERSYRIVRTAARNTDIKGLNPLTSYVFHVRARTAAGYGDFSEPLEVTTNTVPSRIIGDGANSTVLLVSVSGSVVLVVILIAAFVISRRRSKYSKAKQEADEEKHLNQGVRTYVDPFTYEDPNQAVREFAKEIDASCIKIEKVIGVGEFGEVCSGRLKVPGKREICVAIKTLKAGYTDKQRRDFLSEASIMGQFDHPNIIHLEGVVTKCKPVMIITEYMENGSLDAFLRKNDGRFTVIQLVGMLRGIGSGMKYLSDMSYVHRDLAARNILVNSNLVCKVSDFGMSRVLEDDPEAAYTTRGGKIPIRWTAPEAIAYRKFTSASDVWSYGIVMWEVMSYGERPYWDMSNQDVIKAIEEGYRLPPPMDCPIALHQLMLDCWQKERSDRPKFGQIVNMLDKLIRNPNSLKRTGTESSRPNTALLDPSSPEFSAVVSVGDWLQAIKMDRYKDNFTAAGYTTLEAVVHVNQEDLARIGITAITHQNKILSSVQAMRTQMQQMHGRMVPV

inhibition [1]: 0%
fold change (FC) [2]: 0.15
fold change (FC) [3]: 0.43
Structure (SMILES): CNC(=O)c1ccccc1Oc1nc(Nc2cc(OC)c(OC)c(OC)c2)ncc1Br

inhibition [4]: 0%
inhibition [5]: 20%
Structure (SMILES): O=C(N[C@@H](C1CC1)C(F)(F)F)c1cc(-c2cnn3cc(-c4ccc(F)cc4)cnc23)cs1
inhibition [6]: 8%

fold change (FC) [7]: 0
inhibition [8]: 5%
fold change (FC) [9]: 0.06
Structure (SMILES): CC(C)[C@H](NC(=O)c1cc(-c2cnn3cc(-c4ccc(OCCN5CCCCC5)cc4)cnc23)cs1)C(F)(F)F
